Like-named read-outs stand apart in the source and are kept apart here.
Legend:
Experiment in all cases: Secondary dose-response HTS, Cell Titer Glo; call rule not given here
Assay type in all cases: cell-based, human
[1] = test system: MOLM-13; details: secondary high-throughput screen, MOLM-13; for EC50: read-out: average effective concentration, MOLM-13
[2] = test system: MV4-11; details: secondary high-throughput screen, MV4-11; for EC50: Homo sapiens, read-out: average effective concentration, MV4-11
[3] = test system: CHRF288-11; details: secondary high-throughput screen, CHRF288-11; for EC50: Homo sapiens, HTS, read-out: average effective concentration, CHRF288-11
[4] = test system: CMK; details: CMK; for EC50: Homo sapiens, read-out: average effective concentration, CMK
[5] = test system: CMS; details: for EC50: Homo sapiens, HTS, read-out: average effective concentration, CMS
[6] = test system: M07e; details: secondary high-throughput screen, M07e; for EC50: Homo sapiens, M-07e, read-out: average effective concentration, M07e
[7] = test system: ML2; details: secondary high-throughput screen, ML-2; for EC50: Homo sapiens, read-out: average effective concentration, ML-2
[8] = test system: U937; details: secondary high-throughput screen, U937; for EC50: Homo sapiens, U-937, read-out: average effective concentration, U937
[9] = secondary high-throughput screen
[10] = secondary high-throughput screen, CMS

SMILES | EC50 ([1]; Homo sapiens) | EC50 [2] | EC50 [8] | EC50 [1] | EC50 [3] | EC50 [4, 9] | EC50 [5, 10] | EC50 [6] | EC50 [7] | average effective concentration, MOLM-13 [1] | average effective concentration, MV4-11 [2] | average effective concentration, CHRF288-11 [3] | average effective concentration, CMK [4, 9] | average effective concentration, CMS [5, 10] | average effective concentration, M07e [6] | average effective concentration, ML-2 [7] | average effective concentration, U937 [8] | EC50 [4] | EC50 [5]
CN(C)C/C=C/C(=O)Nc1cc2c(Nc3ccc(F)c(Cl)c3)ncnc2cc1O[C@H]1CCOC1 [AFATINIB] | 5.6 µM | 5.4 µM | 6.2 µM |  | 6.9 µM | 3.6 µM | 8.6 µM | > 10 µM | 7 µM |  |  |  |  |  |  |  |  |  | 
COCCCn1c(N)c(C(=O)NC2CCCC2)c2nc3ccccc3nc21 [CAY10591] |  |  |  |  |  |  |  |  |  | Inactive | Inactive | Inactive | Inactive | Inactive | Inactive | Inactive | Inactive |  | 
O=C(NC(NC(=S)Nc1ccc(F)c([N+](=O)[O-])c1)C(Cl)(Cl)Cl)C(c1ccccc1)c1ccccc1 (stereo not drawn) [CGK 733] |  |  |  |  |  |  |  |  |  | Inactive | Inactive | Inactive | Inactive | Inactive | Inactive | Inactive | Inactive |  | 
Cc1cc(C2CCCCC2)n(O)c(=O)c1 [CICLOPIROX] | 3.4 µM | 5.2 µM | 7.5 µM |  | 7.9 µM | 4.7 µM | 3.9 µM | 7.7 µM | 2.4 µM |  |  |  |  |  |  |  |  |  | 
CC1(COc2ccc3c(c2)ncn3-c2ccc3cccc(N4CCC(N)CC4)c3n2)COC1 [CRENOLANIB] | 0.1 µM | 0.072 µM | 5 µM |  | 0.77 µM |  |  | > 10 µM | 3.6 µM |  |  |  |  |  |  |  |  | 6.6 µM | 8.2 µM
N#CC(=C(/N)Sc1ccccc1N)/C(C#N)=C(/N)Sc1ccccc1N [Compound U0126] |  |  |  |  |  |  |  |  |  | Inactive | Inactive | Inactive | Inactive | Inactive | Inactive | Inactive | Inactive |  | 

Further lines, with some results ahead:

EC50 ([1]; Homo sapiens) | EC50 [2] | EC50 [8] | EC50 [1] | SMILES | EC50 [3] | EC50 [4, 9] | EC50 [5, 10] | EC50 [6] | EC50 [7] | average effective concentration, MOLM-13 [1] | average effective concentration, MV4-11 [2] | average effective concentration, CHRF288-11 [3] | average effective concentration, CMK [4, 9] | average effective concentration, CMS [5, 10] | average effective concentration, M07e [6] | average effective concentration, ML-2 [7] | average effective concentration, U937 [8] | EC50 [4] | EC50 [5]
3.9 µM | 3.9 µM | > 10 µM |  | C[C@@H](Oc1cc(-c2cnn(C3CCNCC3)c2)cnc1N)c1c(Cl)ccc(F)c1Cl [CRIZOTINIB] | 7.8 µM | 4.2 µM | 8.3 µM | > 10 µM | 4.8 µM |  |  |  |  |  |  |  |  |  | 
 |  |  | 0.9 µM | CCCCCCCCCCCCCCCc1cccc(OCC)c1C(=O)Nc1ccc(Cl)c(C(F)(F)F)c1 [CTPB] |  |  |  |  |  |  | Inactive | Inactive | Inactive | Inactive | Inactive | Inactive | Inactive |  | 
8.3 µM | 2.8 µM | 2.3 µM |  | C[C@H]1[C@@H](O)O[C@@H]2O[C@@]3(C)CC[C@H]4[C@H](C)CC[C@@H]1[C@@]24OO3 [DIHYDROARTEMISININ] | 9.5 µM |  |  | > 10 µM | 9 µM |  |  |  |  |  |  |  |  | > 10 µM | > 10 µM

From publication PMC6522510 (Nature Communications, 2019)
